Experimental data as given in US8546414B2, “Ion channel modulators and methods of use” (Vertex Pharmaceuticals Incorporated, priority 2004, dated 2013).

Experiments:
Assay type in all cases: cell-based
NaV1.8 = NaV1.8 (Homo sapiens, UniProt Q9Y5Y9); assay: VIPR optical membrane potential assay, NaV1.8 (other subtypes in an analogous mode); settings: Table 9, NaV 1.8 receptors
Experimental: Antagonist properties of test compounds were assessed as follows. Cells expressing the NaV of interest were placed into microtiter plates. After an incubation period, the cells were stained with fluorescent dyes sensitive to the transmembrane potential. The test compounds were added to the microtiter plate. The cells were stimulated with either chemical or electrical means to evoke a NaV dependent membrane potential change from unblocked channels, which was detected and measured with trans-membrane potential-sensitive dyes. Antagonists were detected as a decreased membrane potential response to the stimulus.
24 hours before the assay on VIPR, CHO cells endogenously expressing a NaV 1.2 type voltage-gated NaV are seeded in 96-well poly-lysine coated plates at 60,000 cells per well. […] Plates are incubated in the dark for 30 minutes at room temperature. • 4) While the cells are being stained with coumarin, a […] oxonol solution in BS#2 is prepared. […] As before, the residual volume should be 40 μL. • 6) Upon removing the bath, the cells are loaded with 80 μL of the DiSBAC2(3) solution, after which test compound, dissolved in DMSO, is added to achieve the desired test concentration to each well from the drug addition plate and mixed thoroughly. The volume in the well should be roughly 121 μL. The cells are then incubated for 20-30 minutes. • 7) Once the incubation is complete, the cells are ready to be assayed on VIPR® with a sodium addback protocol. 120 μL of Bath solution #1 is added to stimulate the NaV dependent depolarization. […] tetracaine was used as an antagonist positive control for block of the NaV channel. Analysis of VIPR® Data:
The following is an example of how NaV1.3 inhibition activity is measured using the optical membrane potential method#2. Other subtypes are performed in an analogous mode in a cell line expressing the NaV of interest.

CaV2.2 = target: T1, CaV2.2 (Homo sapiens, UniProt Q00975); assay: VIPR optical membrane potential assay with electrical stimulation, CaV2.2; settings: Table 9, CaV 2.2 receptors
T1 construct: expressed in transfected cells; host or cells: HEK293
How it was run: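 HEK293 cells stably expressing CaV2.2 stained with CC2-DMPE/DiSBAC2(3) voltage-sensitive dyes (10 μM final CC2-DMPE, 30 min, RT), then compound added and cells electrically stimulated for 3-5 s. Read-out: background-subtracted 460/580 nm emission ratio; response R=Rf/Ri (post- vs pre-stimulus ratio); antagonism seen as reduced response.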

NaV1.3 = target: T2, NaV1.3 (Homo sapiens, UniProt Q9NY46); assay: VIPR optical membrane potential assay with electrical stimulation, NaV1.3; settings: Table 9, NaV 1.3 receptors
T2 construct: expressed in transfected cells; host or cells: HEK293
T2 sequence (Q9NY46 whole entry): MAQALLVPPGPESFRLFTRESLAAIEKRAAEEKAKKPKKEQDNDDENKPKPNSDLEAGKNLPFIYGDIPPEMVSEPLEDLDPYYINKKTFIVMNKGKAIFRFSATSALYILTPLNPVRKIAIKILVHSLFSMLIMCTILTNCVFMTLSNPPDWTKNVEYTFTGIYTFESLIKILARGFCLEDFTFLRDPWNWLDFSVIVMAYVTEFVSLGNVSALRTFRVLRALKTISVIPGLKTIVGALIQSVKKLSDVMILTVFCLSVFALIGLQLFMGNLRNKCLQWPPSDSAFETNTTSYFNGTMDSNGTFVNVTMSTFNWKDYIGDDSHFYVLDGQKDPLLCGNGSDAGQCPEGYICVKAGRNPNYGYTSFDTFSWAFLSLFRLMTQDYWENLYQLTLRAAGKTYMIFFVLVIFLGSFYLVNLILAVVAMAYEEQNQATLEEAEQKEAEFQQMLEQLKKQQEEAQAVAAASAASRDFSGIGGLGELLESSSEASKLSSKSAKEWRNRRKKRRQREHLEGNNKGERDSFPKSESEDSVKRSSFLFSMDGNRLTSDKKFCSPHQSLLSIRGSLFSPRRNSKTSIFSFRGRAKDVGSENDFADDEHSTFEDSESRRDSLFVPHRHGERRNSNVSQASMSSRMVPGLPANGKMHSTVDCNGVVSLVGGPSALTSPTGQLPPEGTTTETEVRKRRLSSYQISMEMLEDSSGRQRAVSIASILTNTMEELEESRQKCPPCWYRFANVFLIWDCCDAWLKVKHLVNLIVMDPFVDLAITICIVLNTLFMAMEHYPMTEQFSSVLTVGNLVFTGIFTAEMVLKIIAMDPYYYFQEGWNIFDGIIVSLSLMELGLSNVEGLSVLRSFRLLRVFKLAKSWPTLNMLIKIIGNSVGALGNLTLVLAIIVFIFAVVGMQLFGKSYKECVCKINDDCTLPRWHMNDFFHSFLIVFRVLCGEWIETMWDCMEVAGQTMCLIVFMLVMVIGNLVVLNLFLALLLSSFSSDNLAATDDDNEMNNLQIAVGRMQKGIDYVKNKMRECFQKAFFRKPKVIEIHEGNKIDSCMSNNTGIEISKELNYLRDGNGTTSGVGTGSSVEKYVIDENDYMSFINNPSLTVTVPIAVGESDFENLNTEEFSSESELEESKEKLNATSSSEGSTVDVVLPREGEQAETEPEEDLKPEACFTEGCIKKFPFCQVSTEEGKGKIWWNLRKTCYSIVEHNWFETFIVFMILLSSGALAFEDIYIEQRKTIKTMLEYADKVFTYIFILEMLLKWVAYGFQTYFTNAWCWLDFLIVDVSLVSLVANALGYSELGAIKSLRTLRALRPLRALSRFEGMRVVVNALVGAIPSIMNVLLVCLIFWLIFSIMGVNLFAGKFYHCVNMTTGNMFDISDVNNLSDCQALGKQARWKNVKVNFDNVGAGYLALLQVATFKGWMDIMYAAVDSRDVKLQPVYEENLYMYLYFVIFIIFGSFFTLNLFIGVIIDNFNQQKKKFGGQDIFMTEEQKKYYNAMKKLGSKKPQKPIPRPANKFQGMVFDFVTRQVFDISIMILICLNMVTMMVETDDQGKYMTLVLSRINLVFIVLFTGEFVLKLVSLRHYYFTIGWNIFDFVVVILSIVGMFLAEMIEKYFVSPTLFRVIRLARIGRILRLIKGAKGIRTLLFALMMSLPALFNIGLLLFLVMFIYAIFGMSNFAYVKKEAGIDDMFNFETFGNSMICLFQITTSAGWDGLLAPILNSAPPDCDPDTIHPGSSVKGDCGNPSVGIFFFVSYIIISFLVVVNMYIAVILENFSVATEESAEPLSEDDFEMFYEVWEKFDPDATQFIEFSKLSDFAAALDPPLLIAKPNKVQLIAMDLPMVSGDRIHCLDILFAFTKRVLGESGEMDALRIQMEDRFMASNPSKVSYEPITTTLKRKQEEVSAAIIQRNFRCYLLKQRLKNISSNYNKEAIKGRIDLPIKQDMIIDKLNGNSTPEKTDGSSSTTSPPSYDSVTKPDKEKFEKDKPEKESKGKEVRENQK
How it was run: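 HEK293 cells stably expressing NaV1.3, stained with CC2-DMPE (10 μM final) then DiSBAC2(3) with ABSC1, 30 min each at RT; compounds added with oxonol. Electrical stimulation for 3 s; 460/580 nm background-subtracted emission ratio Rf/Ri, normalised to tetracaine (positive) and untreated (negative) controls.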

Chain of NaV1.8 (Q9Y5Y9 whole entry): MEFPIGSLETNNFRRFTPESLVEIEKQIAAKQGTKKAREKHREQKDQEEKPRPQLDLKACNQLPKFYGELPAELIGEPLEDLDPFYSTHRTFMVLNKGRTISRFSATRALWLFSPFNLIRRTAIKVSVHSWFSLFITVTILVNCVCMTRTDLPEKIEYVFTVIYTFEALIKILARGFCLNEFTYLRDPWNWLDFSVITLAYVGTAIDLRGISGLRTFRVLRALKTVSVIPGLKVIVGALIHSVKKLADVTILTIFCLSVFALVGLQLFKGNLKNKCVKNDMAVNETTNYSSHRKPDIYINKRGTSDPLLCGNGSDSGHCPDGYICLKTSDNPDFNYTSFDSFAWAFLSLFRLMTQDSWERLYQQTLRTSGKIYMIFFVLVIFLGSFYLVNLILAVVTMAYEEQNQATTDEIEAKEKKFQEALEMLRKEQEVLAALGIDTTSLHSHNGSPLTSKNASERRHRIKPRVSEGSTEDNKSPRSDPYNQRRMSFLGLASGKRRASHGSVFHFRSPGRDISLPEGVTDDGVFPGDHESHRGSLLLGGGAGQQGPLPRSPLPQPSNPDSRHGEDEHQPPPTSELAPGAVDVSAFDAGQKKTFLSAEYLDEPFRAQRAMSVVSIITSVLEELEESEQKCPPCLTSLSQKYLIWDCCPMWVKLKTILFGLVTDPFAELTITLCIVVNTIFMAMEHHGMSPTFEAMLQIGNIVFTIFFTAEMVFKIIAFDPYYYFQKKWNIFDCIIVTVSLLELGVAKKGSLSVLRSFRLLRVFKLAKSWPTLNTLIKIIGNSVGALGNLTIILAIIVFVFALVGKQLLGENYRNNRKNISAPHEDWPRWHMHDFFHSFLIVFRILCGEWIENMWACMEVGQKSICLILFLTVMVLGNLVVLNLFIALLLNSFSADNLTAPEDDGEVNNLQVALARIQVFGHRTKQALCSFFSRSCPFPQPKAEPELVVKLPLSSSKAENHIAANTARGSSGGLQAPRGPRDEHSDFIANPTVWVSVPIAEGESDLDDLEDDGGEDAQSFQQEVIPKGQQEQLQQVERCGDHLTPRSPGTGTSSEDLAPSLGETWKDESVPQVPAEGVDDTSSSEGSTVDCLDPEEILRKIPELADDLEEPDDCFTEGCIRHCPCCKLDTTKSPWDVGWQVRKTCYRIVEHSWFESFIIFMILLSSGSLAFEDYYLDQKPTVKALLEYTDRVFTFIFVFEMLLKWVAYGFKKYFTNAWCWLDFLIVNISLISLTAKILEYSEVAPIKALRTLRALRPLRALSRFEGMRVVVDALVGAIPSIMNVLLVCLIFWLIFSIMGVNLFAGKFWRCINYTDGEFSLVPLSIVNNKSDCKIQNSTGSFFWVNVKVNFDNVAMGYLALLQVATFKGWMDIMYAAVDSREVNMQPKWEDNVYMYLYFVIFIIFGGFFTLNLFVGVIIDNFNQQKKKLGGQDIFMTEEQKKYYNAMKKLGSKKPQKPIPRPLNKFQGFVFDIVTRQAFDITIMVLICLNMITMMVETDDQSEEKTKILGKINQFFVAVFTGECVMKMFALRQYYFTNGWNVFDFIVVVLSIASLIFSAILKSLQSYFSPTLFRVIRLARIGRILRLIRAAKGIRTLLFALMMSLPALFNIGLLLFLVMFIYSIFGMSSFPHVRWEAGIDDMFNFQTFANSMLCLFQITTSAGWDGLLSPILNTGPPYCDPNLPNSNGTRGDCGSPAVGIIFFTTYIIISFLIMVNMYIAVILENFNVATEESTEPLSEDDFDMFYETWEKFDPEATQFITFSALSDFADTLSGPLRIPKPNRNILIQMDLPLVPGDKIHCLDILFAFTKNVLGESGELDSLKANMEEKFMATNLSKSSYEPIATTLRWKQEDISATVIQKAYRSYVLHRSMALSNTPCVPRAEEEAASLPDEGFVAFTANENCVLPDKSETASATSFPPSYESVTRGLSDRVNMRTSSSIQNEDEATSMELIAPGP

Row | Compound | IC50 (NaV1.8) | IC50 (CaV2.2) | IC50 (NaV1.3)
1 | CC(C)N(C(=O)c1cnc(N2CCCCC2)nc1-c1ccccc1F)c1ccc2c(c1)OCO2 [compound 70] | > 10 µM | < 2 µM | 2 to 10 µM
2 | CCC(COC)N(Cc1ccccc1)C(=O)c1cnc(N2CCSCC2)nc1-c1ccccc1F (stereo not shown) [compound 81] | > 10 µM | 2 to 10 µM | 2 to 10 µM
3 | COc1cccc(CN(C(=O)c2cnc(N3CCOCC3)nc2-c2ccccc2F)C2CC2)c1 [compound 56] | > 10 µM | 2 to 10 µM | > 10 µM
4 | CC(C)N(Cc1ccc2c(c1)OCO2)C(=O)c1cnc(N2CCCCC2)nc1-c1ccccc1Cl [compound 146] | 2 to 10 µM | 2 to 10 µM | 2 to 10 µM
5 | O=C(c1cnc(N2CCOCC2)nc1-c1ccccc1F)N(Cc1cccnc1)C1CC1 [compound 138] | > 10 µM | > 10 µM | > 10 µM
6 | CN1CCN(c2ncc(C(=O)N(Cc3ccncc3)C3CC3)c(-c3ccccc3F)n2)CC1 [compound 18] | > 10 µM | > 10 µM | > 10 µM
7 | CCC(COC)N(Cc1ccccc1)C(=O)c1c(C)nc(N2CCOCC2)nc1-c1ccccc1F (stereo not shown) [compound 49] | > 10 µM | > 10 µM | 2 to 10 µM
8 | CC(C)N(Cc1ccccc1)C(=O)c1cnc(N2CCOCC2)nc1-c1ccc(F)c(F)c1 [compound 16] | > 10 µM | > 10 µM | > 10 µM
9 | COc1cccc(Nc2ncc(C(=O)N(Cc3ccccc3)C(C)C)c(-c3ccccc3F)n2)c1 [compound 15] | > 10 µM | > 10 µM | > 10 µM
10 | COc1ccccc1C1CCN(C(=O)c2cnc(N3CCOCC3)nc2-c2ccccc2F)CC1 [compound 44] | 2 to 10 µM | > 10 µM | 2 to 10 µM
11 | CC(C)N(C(=O)c1cnc(N2CCCCC2)nc1-c1ccccc1F)c1cccc([N+](=O)[O-])c1 [compound 140] | > 10 µM | 2 to 10 µM | 2 to 10 µM
12 | O=C(c1cnc(N2CCOCC2)nc1-c1ccccc1F)N(Cc1ccccc1)C1CC1 [compound 100] | > 10 µM | 2 to 10 µM | 2 to 10 µM
13 | COc1cccc(CN(C(=O)c2cnc(N3CCC4CCCCC4C3)nc2-c2ccccc2F)C(C)C)c1 (stereo not shown) [compound 162] | > 10 µM | < 2 µM | < 2 µM
14 | COc1cccc(N(C(=O)c2cnc(N3CCCCC3)nc2-c2ccccc2F)C2CCCCC2)c1 [compound 127] | > 10 µM | 2 to 10 µM | 2 to 10 µM
15 | O=C(NC1CCCC1)c1cnc(N2CCOCC2)nc1-c1ccccc1F [compound 19] | > 10 µM | > 10 µM | > 10 µM
16 | COc1cccc(CN(C(=O)c2cnc(N3CCCCC3)nc2-c2ccccc2Cl)C(C)C)c1 [compound 55] | 2 to 10 µM | 2 to 10 µM | 2 to 10 µM
17 | O=C(c1cnc(N2CCCCC2)nc1-c1ccccc1F)N(Cc1cccc(-c2ccncc2)c1)C1CC1 [compound 14] | > 10 µM | 2 to 10 µM | > 10 µM
18 | CC(C)N(Cc1ccccc1)C(=O)c1cnc(NCCc2ccc(F)cc2)nc1-c1ccccc1F [compound 118] | > 10 µM | < 2 µM | 2 to 10 µM
19 | Cc1nc(N2CCOCC2)nc(-c2ccccc2F)c1C(=O)N(Cc1ccccc1)C(C)C [compound 13] | > 10 µM | 2 to 10 µM | > 10 µM
20 | CCN(CCOC)c1ncc(C(=O)N(Cc2cccc(OC)c2)C(C)C)c(-c2ccccc2F)n1 [compound 103] | > 10 µM | < 2 µM | < 2 µM
21 | COc1cccc(CN(C(=O)c2c(C)nc(N3CCOCC3)nc2-c2ccccc2F)C(C)C)c1 [compound 186] | > 10 µM | 2 to 10 µM | 2 to 10 µM
22 | CC(C)N(Cc1ccccc1)C(=O)c1cnc(Nc2ccc(Cl)cc2)nc1-c1ccccc1F [compound 207] | > 10 µM | > 10 µM | > 10 µM
23 | CC(C)Oc1ccc(-c2nc(N3CCOCC3)ncc2C(=O)N(Cc2ccccc2)C(C)C)cc1 [compound 170] | > 10 µM | > 10 µM | > 10 µM
24 | COc1cccc(N(C(=O)c2cnc(N3CCCCC3)nc2-c2ccccc2Cl)C2CCCCC2)c1 [compound 115] | > 10 µM | 2 to 10 µM | > 10 µM
25 | CN1CCN(c2ncc(C(=O)N(Cc3ccc(C(F)(F)F)cc3)C3CC3)c(-c3ccccc3F)n2)CC1 [compound 126] | > 10 µM | 2 to 10 µM | > 10 µM

Row | Compound | IC50 (NaV1.8) | IC50 (CaV2.2) | IC50 (NaV1.3)
26 | CCN(CCOC)c1ncc(C(=O)N(Cc2ccccc2)C(C)C)c(-c2ccccc2F)n1 [compound 83] | 2 to 10 µM | < 2 µM | 2 to 10 µM
27 | Cc1nc(N2CCOCC2)nc(-c2ccccc2F)c1C(=O)N(Cc1ccc2c(c1)CCO2)C1CC1 [compound 200] | > 10 µM | 2 to 10 µM | 2 to 10 µM
28 | COc1cccc(N(C(=O)c2cnc(N3CCOCC3)nc2-c2ccccc2F)C2CCCC2)c1 [compound 169] | > 10 µM | > 10 µM | 2 to 10 µM
29 | CC(C)N(C(=O)c1cnc(N2CCOCC2)nc1-c1ccccc1F)c1ccc2c(c1)OCO2 [compound 182] | > 10 µM | 2 to 10 µM | > 10 µM
30 | CN1CCN(c2ncc(C(=O)N(Cc3ccc(F)cc3)C3CC3)c(-c3ccccc3F)n2)CC1 [compound 39] | > 10 µM | > 10 µM | > 10 µM
31 | N#Cc1ccc(-c2nc(NCc3ccccc3C(F)(F)F)ncc2C(=O)NCC2CC2)cc1 [compound 248] |  | > 10 µM | > 10 µM
32 | COCCNc1ncc(C(=O)NCC2CCCCC2)c(-c2ccc(-c3ccccc3)cc2)n1 [compound 297] |  | > 10 µM | > 10 µM
33 | CC(C)N(Cc1ccccc1)C(=O)c1cnc(NCc2ccc3c(c2)OCO3)nc1-c1ccccc1F [compound 301] |  | > 10 µM | > 10 µM
34 | CC1CC(C)CN(C(=O)c2cnc(N3CCOCC3)nc2-c2ccccc2F)C1 (stereo not shown) [compound 279] |  | > 10 µM | > 10 µM
35 | CCN(Cc1ccccc1)C(=O)c1cnc(N2CCCC(C(N)=O)C2)nc1-c1ccccc1F (stereo not shown) [compound 289] |  | > 10 µM | > 10 µM
36 | CC(C)N(Cc1ccccc1)C(=O)c1cnc(N2CCCC2)nc1-c1ccc(C#N)cc1 [compound 211] |  | > 10 µM | > 10 µM
37 | CCC(C)NC(=O)c1cnc(N(C)CCc2ccc(OC)c(OC)c2)nc1-c1ccc(C#N)cc1 (stereo not shown) [compound 331] |  | > 10 µM | > 10 µM
38 | CC(C)CN(CC(C)C)C(=O)c1cnc(N2CCCC2)nc1-c1ccc(C#N)cc1 [compound 341] |  | > 10 µM | > 10 µM
39 | CCC(C)NC(=O)c1cnc(NC2CCCCC2)nc1-c1ccc(C#N)cc1 (stereo not shown) [compound 309] |  | > 10 µM | > 10 µM
40 | COc1ccc(CCN(C)c2ncc(C(=O)N3CC(C)CC(C)C3)c(-c3ccc(C#N)cc3)n2)cc1OC (stereo not shown) [compound 285] |  | > 10 µM | > 10 µM
41 | O=C(NCc1ccccc1)c1cnc(NCCc2cccc(F)c2)nc1-c1ccccc1F [compound 224] |  | > 10 µM | > 10 µM
42 | CCC1CCC(C)N(C(=O)c2cnc(NCC3CC3)nc2-c2ccccc2F)C1 (stereo not shown) [compound 219] |  | 2 to 10 µM | > 10 µM
43 | CCN(Cc1ccccc1)C(=O)c1cnc(N2CCN(C(C)=O)CC2)nc1-c1ccccc1F [compound 290] |  | > 10 µM | > 10 µM
44 | N#Cc1ccc(-c2nc(NCC3CCCCC3)ncc2C(=O)NCCc2cccc(F)c2)cc1 [compound 345] |  | > 10 µM | > 10 µM
45 | CCC(C)Nc1ncc(C(=O)NC2CCCCC2C)c(-c2ccccc2F)n1 (stereo not shown) [compound 253] |  | > 10 µM | > 10 µM
46 | CC1CC(C)CN(C(=O)c2cnc(NCCc3cccc(F)c3)nc2-c2ccc(C#N)cc2)C1 (stereo not shown) [compound 220] |  | 2 to 10 µM | > 10 µM
47 | O=C(c1cnc(NCc2ccccc2C(F)(F)F)nc1-c1ccccc1F)N1CCOCC1 [compound 252] |  | > 10 µM | > 10 µM
48 | O=C(c1cnc(NCc2ccc3c(c2)OCO3)nc1-c1ccc(-c2ccccc2)cc1)N1CCCCC1 [compound 342] |  | > 10 µM | > 10 µM
49 | COCCCNC(=O)c1cnc(NCCc2ccc(OC)cc2)nc1-c1cccc(C)c1 [compound 258] |  | > 10 µM | > 10 µM
50 | COCCCNC(=O)c1cnc(N2CCN(C(C)=O)CC2)nc1-c1cccc(C)c1 [compound 339] |  | > 10 µM | > 10 µM
